The target in experiment [1] is Muscarinic acetylcholine receptor. The experiment is described as follows: Affinity at muscarinic receptor, (For atropine Ki(nM)= 3.5+/-0.3). It is filed as protein assay.
Experiment [2] deals with T1, 5-hydroxytryptamine receptor 3A (Rattus norvegicus, UniProt P35563).
T1 sequence (P35563 whole entry): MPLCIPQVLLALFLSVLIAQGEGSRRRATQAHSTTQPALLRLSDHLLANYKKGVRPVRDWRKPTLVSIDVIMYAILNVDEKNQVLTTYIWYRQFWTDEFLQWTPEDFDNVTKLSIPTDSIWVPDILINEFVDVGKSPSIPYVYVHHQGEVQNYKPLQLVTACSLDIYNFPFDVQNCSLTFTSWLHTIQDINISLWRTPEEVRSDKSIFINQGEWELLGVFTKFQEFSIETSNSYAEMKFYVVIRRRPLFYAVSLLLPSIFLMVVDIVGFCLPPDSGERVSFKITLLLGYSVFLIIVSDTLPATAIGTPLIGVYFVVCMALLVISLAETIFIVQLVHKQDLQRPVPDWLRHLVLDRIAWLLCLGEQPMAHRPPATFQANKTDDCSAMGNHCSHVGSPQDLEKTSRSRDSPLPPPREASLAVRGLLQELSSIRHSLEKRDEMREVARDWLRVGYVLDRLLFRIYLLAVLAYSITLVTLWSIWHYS
The experiment is described as follows: Affinity at 5-hydroxytryptamine 3 receptor (For granisetron = Ki (nM)=0.3+/-0.01).

In experiment [3] the test system is Mus musculus. The experiment is described as follows: Antidepressant-like activity in the forced swimming test (FST) in mice at 0.1 mg/kg dose. It is filed as functional.
Another experiment relates to Rattus norvegicus. The experiment is described as follows: Effect on helpless behavior in rats and the number of escape failures was determined in shuttle-box session-3 (SB-3) at 1 mg/kg dose. The format is functional.
Experiment [4] addresses T2, Adrenergic receptor alpha-2 (Rattus norvegicus, UniProt P22086+P19328+P22909).
T2 sequence (P22086 whole entry): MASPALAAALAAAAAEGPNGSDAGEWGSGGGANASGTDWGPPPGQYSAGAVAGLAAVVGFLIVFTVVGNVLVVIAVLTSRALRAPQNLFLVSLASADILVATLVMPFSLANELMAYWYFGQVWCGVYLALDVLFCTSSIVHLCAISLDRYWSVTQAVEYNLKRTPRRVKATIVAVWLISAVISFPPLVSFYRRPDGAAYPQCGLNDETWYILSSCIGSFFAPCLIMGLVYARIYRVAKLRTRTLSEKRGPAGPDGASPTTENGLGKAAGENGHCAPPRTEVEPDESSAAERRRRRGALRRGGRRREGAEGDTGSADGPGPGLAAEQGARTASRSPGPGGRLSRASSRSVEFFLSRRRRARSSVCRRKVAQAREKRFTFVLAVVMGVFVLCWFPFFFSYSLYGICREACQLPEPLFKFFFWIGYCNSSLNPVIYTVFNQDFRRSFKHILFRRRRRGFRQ
T2 sequence (P19328 whole entry): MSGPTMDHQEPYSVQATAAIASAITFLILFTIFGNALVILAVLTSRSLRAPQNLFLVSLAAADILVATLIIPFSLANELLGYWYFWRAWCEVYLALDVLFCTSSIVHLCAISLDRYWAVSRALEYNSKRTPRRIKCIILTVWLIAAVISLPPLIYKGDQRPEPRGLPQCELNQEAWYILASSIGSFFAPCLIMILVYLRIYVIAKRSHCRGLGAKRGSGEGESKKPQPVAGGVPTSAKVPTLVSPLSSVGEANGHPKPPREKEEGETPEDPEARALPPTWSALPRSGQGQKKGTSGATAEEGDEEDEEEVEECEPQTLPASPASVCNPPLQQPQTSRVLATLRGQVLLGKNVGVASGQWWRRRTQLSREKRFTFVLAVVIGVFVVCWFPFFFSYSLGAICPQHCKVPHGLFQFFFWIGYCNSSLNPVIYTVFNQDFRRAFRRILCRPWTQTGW
T2 sequence (P22909 whole entry): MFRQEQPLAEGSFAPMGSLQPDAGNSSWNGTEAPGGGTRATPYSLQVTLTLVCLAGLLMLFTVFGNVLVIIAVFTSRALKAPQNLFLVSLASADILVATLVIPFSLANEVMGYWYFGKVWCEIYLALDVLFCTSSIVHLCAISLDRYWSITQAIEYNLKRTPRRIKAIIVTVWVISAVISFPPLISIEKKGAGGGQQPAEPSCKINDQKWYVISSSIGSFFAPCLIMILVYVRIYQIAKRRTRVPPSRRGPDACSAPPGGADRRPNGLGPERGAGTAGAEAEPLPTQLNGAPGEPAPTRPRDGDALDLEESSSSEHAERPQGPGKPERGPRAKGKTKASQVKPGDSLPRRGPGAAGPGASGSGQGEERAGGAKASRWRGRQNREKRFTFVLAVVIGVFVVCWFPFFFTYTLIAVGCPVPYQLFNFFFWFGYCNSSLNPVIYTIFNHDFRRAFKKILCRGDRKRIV
The experiment is described as follows: Affinity towards alpha-2 adrenoceptor from rat cortex using [3H]-clonidine as radioligand (For clonidine Ki(nM)= […]+/-[…]).

In experiment [5] the target is T3, 5-hydroxytryptamine receptor 1A (Homo sapiens) (UniProt P08908).
T3 sequence (whole entry): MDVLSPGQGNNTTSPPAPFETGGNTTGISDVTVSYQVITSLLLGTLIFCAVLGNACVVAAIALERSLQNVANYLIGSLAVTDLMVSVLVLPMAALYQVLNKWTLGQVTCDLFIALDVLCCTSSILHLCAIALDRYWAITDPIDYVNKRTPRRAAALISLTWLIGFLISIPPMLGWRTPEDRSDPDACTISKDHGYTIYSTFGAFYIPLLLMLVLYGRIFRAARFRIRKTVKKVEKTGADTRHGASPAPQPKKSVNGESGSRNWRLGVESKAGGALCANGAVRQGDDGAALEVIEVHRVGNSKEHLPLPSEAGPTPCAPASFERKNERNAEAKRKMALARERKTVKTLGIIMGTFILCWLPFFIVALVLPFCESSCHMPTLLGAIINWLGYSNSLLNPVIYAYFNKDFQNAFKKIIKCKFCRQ
The experiment is described as follows: Percent increase in the Forskolin-Stimulated cAMP formation, in HeLa cells transfected with the 5-HT 1A receptor a [compound (1 uM)]. The format is functional, cell-based.

A further experiment concerns the target Adrenergic receptor beta (Rattus norvegicus, UniProt P18090+P10608+P26255).
Experiment [6] has as its target 5-hydroxytryptamine receptor 2A (Rattus norvegicus, UniProt P14842). The experiment is described as follows: Affinity at 5-hydroxytryptamine 2 receptor from rat frontal cortex using [3H]ketanserin as radioligand (For ketanserin = Ki(nM)=0.7+/-0.09). It is filed as tissue-based.
Experiment [7] has as its system Mus musculus. The experiment is described as follows: Time-dependent effect on 8-OH-DPAT-induced hypothermia (change in body temperature) after 30 min, in mice at 0.01 mg/kg dose. The format is functional.
Experiment [8] has as its system Mus musculus. The experiment is described as follows: Time-dependent effect on 8-OH-DPAT-induced hypothermia (change in body temperature) after 60 min, in mice at 0.01 mg/kg dose. The format is functional.
Experiment [9] relates to Mus musculus. The experiment is described as follows: Effect on immobility time in the forced swimming test (FST) in mice at 0.01 mg/kg dose. The format is functional.
For experiment [10], the target named is T3, 5-hydroxytryptamine receptor 1A (Homo sapiens). The experiment is described as follows: Percent increase in the Forskolin-Stimulated cAMP formation, in HeLa cells transfected with the 5-HT 1A receptor at 1 uM concentration. The format is functional, cell-based.
Experiment [11] deals with Mus musculus. The experiment is described as follows: Antidepressant-like activity in the forced swimming test (FST) in mice at 0.01 mg/kg dose; Antidepressant like activity. It is filed as functional.

Consider three molecules from ChEMBL document CHEMBL1134339, “New 1-aryl-3-(4-arylpiperazin-1-yl)propane derivatives, with dual action at 5-HT1A serotonin receptors and serotonin transporter, as a new class of antidepressants” (J Med Chem, 2001).

Bounds are passed on as bounds.

5-hydroxytryptamine receptor 2A, sequence (P14842 whole entry): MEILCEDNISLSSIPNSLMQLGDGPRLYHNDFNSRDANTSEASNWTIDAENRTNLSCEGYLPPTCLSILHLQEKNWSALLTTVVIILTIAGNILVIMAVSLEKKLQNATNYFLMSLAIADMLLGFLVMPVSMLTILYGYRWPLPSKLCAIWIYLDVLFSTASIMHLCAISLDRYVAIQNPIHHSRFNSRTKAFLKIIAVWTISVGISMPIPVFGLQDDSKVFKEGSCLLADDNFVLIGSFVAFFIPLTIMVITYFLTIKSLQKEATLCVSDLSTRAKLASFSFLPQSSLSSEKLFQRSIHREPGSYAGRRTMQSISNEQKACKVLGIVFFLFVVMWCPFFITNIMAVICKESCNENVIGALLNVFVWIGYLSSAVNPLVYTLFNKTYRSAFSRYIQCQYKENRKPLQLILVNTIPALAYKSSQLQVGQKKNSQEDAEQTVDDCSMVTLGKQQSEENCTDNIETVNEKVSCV

As to `COc1ccccc1N1CCN(CCC(=O)c2csc3ccccc23)CC1`, the Ki in experiment [1] and in experiment [2] was over 5 µM throughout. In the experiment on Mus musculus [3], this molecule had an Activity of 18%. Besides, the “No. of escape failures” value in the experiment on Rattus norvegicus is given as under 2.8.
As to `COc1ccccc1N1CCN(CCC(Oc2cccc3ccccc23)c2ccsc2)CC1` (configuration not stated), the Ki in experiment [4] was 5 µM; on Adrenergic receptor beta, over 5000 nM; in experiment [6], over 5000 nM. Also, the cAMP increase in [5] is 52%. Moreover, the “No. of escape failures” value with Rattus norvegicus was found to be 0.5.
As for `COc1ccccc1N1CCN(CCC(O)c2csc3ccccc23)CC1` (configuration not stated), the Temperature change in the experiment with Mus musculus [7] was -1.3 °C; with Mus musculus [8], -0.73 °C. Further, the Ki in experiment [4] stood at 2 µM; on Adrenergic receptor beta, 750 nM; in [6], 250 nM. Besides, the Immobility time in the experiment on Mus musculus [9] is listed as under 54.4 s. In experiment [10], this molecule had a cAMP increase of 64%. In the experiment on Mus musculus [11], this molecule had an Activity of 70%.
